Experimental data: the NIST ThermoML archive (doi:10.1021/acs.jced.7b00135)
“And” between values parts separate entries of the source, which are not always exact repeats. Equal entries are not always repeated.

Columns and labels:
[1] = wn = mass fraction of the nth substance listed; conditions: 100 kPa, Liquid; for viscosity: Capillary tube (Ostwald / Ubbelohde) method; for mass density: Vibrating tube method
[2] = Liquid, Closed cell (Static) method

O=S(=O)([N-]S(=O)(=O)C(F)(F)F)C(F)(F)F.[Li+] [lithium bis((trifluoromethyl)sulfonyl)amide] + O
[1]
Conditions	mass density, 298.15 K [kg/m3]	mass density, 323.15 K [kg/m3]	mass density, 348.15 K [kg/m3]	mass density, 373.15 K [kg/m3]	viscosity, 298.15 K [mPa·s]	viscosity, 323.15 K [mPa·s]	viscosity, 348.15 K [mPa·s]	viscosity, 373.15 K [mPa·s]
w1 = 0.2739	1160	1148	1131	1109	1.54	0.88	0.59	0.48
w1 = 0.4871	1325	1304	1282	1258	2.74	1.5	1	0.68
w1 = 0.6633	1493	1467	1440	1401	5.34	2.83	1.82	1.54
w1 = 0.8024	1654	1624	1598	1557	18.23	8.75	5.2	3.42

O [water]
[2]
Conditions	vapor or sublimation pressure
274.15 K	0.661 kPa and 0.657 kPa
278.15 K	0.873 kPa
279.48 K	0.953 kPa
283.15 K	1.228 kPa
286.16 K	1.508 kPa
291.39 K	2.094 kPa
293.14 K	2.337 kPa
293.15 K	2.339 kPa
296.31 K	2.839 kPa
296.32 K	2.834 kPa
298.81 K	3.288 kPa
301.37 K	3.827 kPa
303.15 K	4.247 kPa
303.57 K	4.36 kPa
307.73 K	5.507 kPa
308.26 K	5.666 kPa
312.87 K	7.275 kPa
313.07 K	7.345 kPa
313.15 K	7.385 kPa
314.62 K	7.977 kPa
318.13 K	9.585 kPa and 9.578 kPa
322.99 K	12.26 kPa
323.1 K	12.32 kPa
323.15 K	12.35 kPa
323.17 K	12.36 kPa
328.14 K	15.75 kPa
328.88 K	16.31 kPa
333.15 K	20.06 kPa and 19.95 kPa
343.15 K	31.28 kPa and 31.2 kPa
353.15 K	47.45 kPa and 47.41 kPa
363.15 K	70.21 kPa and 70.18 kPa
373.15 K	101.42 kPa and 101.42 kPa
383.15 K	143.29 kPa and 143.38 kPa
393.15 K	198.75 kPa and 198.67 kPa
403.15 K	270.22 kPa and 270.28 kPa
413.15 K	361.64 kPa and 361.54 kPa
423.15 K	476.33 kPa and 476.17 kPa
433.15 K	618.34 kPa and 618.24 kPa
443.15 K	792.15 kPa and 792.19 kPa
453.15 K	1002.7 kPa and 1002.8 kPa
463.15 K	1255.2 kPa and 1255.2 kPa
468.15 K	1398.9 kPa
470.15 K	1459.7 kPa
471.15 K	1491 kPa and 1490.9 kPa
